According to PubChem BioAssay (NCI):
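Dose response: 5 concentrations. Exposure: 48 h. Format: 96-well plates. Endpoint: linear interpolation; highest concentration if not reached. Abbreviation: GI50, concentration required for 50% inhibition of growth. TGI denotes the concentration required for complete inhibition of growth.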

Experiments:
Experiment in all cases: growth of human tumour cells (NCI), 48 h
[1] = tested on: RXF 393 renal
[2] = tested on: SK-MEL-28 melanoma
[3] = tested on: EKVX NSCLC
[4] = tested on: UACC-257 melanoma
[5] = tested on: COLO 205 colon
[6] = tested on: MALME-3M melanoma
[7] = tested on: SF-295 CNS
[8] = tested on: T-47D breast
[9] = tested on: SK-MEL-2 melanoma
[10] = tested on: ACHN renal

Structure (SMILES)	TGI [1] [µM]	TGI [2] [µM]	TGI [3] [µM]	TGI [4] [µM]	TGI [5] [µM]	TGI [6] [µM]	TGI [7] [µM]	TGI [8] [µM]	TGI [9] [µM]	TGI [10] [µM]	GI50 [1] [µM]	GI50 [2] [µM]	GI50 [3] [µM]	GI50 [4] [µM]	GI50 [5] [µM]	GI50 [6] [µM]	GI50 [7] [µM]	GI50 [8] [µM]	GI50 [9] [µM]	GI50 [10] [µM]
CCCCC(=O)Nc1ccc2cc(C(=O)OC)c(=O)[nH]c2n1	> 100	> 100	> 100	> 100	> 100	> 100	> 100	> 100	> 100	> 100	–	–	–	–	–	–	–	–	–	–
Brc1ccc2c(c1)[C@H]1CCc3c([nH]c4ccccc34)[C@H]1N2	33.4	27	22.6	25.6	23.6	22.8	24.5	16.8	36.4	25	–	–	–	–	–	–	–	–	–	–
O=c1[nH]nc(Nc2ccccc2)c2nnn(Cc3ccccc3)c12	> 100	> 100	> 100	> 100	> 100	–	> 100	> 100	> 100	> 100	–	–	–	–	–	–	–	–	–	–
CCOC(=O)C(NC(=O)Nc1ccccc1)(Nc1cccc(Cl)c1)C(F)(F)F (configuration not stated)	> 100	> 100	> 100	> 100	> 100	> 100	–	> 100	> 100	> 100	–	–	–	–	–	–	–	–	–	–
Cc1cc2nc(N)n[n+]([O-])c2cc1C	> 100	> 100	> 100	> 100	> 100	> 100	> 100	> 100	> 100	> 100	–	–	–	–	–	–	–	–	–	–
c1ccc2c3c(c(N4CCNCC4)nc2c1)CCCC3	22.7	31.1	21.1	20.6	18.9	37.3	45.8	28.5	25.2	27.6	–	–	–	–	–	–	–	–	–	–
O=C(CSCC(=O)N/N=C/c1ccc(F)cc1)N/N=C/c1ccc(F)cc1	> 100	> 100	> 100	> 100	> 100	> 100	–	> 100	> 100	> 100	–	–	–	–	–	–	–	–	–	–
COc1cc(C(C)(C)C)c(OC(=O)/C=C/C(=O)O/C=C/[N+](=O)[O-])c(C(C)(C)C)c1	81.7	–	> 100	> 100	> 100	–	> 100	> 100	–	> 100	–	–	–	–	–	–	–	–	–	–
c1ccc2c(c1)N=c1ccccc1=P21c2ccccc2Nc2ccccc21	1.89	11.7	> 31.1	2.73	0.366	0.868	7.64	1.63	0.923	10.9	–	–	–	–	–	–	–	–	–	–
COc1cc(CNc2nc3cc(C(F)(F)F)ccc3nc2C(=O)O)cc(OC)c1OC	> 100	> 100	57.1	63.6	53.7	> 100	43.3	83.8	47.1	73.3	–	–	–	–	–	–	–	–	–	–
COC(=O)[C@@]12CC3CN(Cc4c1[nH]c1ccccc41)C2CC3=O	> 100	> 100	> 100	> 100	> 100	> 100	> 100	> 100	> 100	> 100	–	–	–	–	–	–	–	–	–	–
O=C(NC12CC3CC(CC(C3)C1)C2)n1cnc2cncnc21	> 100	> 100	> 100	> 100	37.4	78.6	67.6	> 100	58.4	> 100	–	–	–	–	–	–	–	–	–	–
CC1CN=C(c2ccc3c(c2)Cc2cc(C4=NCC(C)N4)ccc2-3)N1 (configuration not stated)	> 100	> 100	> 100	> 100	> 100	46	> 100	> 100	44.8	> 100	–	–	–	–	–	–	–	–	–	–
O=C(NCCc1ccc(F)cc1)c1cc(/C=C/c2cc(O)ccc2O)ccc1O	4.4	> 25.3	6.38	6.52	13.6	5.92	36.2	5.28	7.95	4.25	–	–	–	–	–	–	–	–	–	–
C/C(=C/CC[C@](C)(OC1OC(CO)C(O)C(O)C1OC1OC(C)C(O)C(O)C1O)[C@H]1CC[C@]2(C)[C@@H]1CC[C@@H]1[C@@]3(C)CC[C@H](O)C(C)(C)[C@@H]3C[C@H](O)[C@]12C)CO (some centres not stated)	> 100	> 100	> 100	> 100	> 100	> 100	> 100	> 100	–	> 100	–	–	–	–	–	–	–	–	–	–
CC(C)=CCC[C@@H](C)c1c(O)c(O)c(C)c2nc3ccccc3nc12	4.45	23.8	14.8	12.7	18.1	7.53	4.93	10.6	9.26	5.64	–	–	–	–	–	–	–	–	–	–
O=C(O)CC(Cc1ccccc1)C(=O)O (configuration not stated)	> 100	> 100	> 100	> 100	> 100	> 100	> 100	> 100	> 100	> 100	–	–	–	–	–	–	–	–	–	–
C(=C/c1ccc2nc(-c3ccc(/C=C/C=N/NC4=NCCCN4)cc3)cn2c1)/C=N/NC1=NCCCN1	48.6	> 100	35.7	> 100	> 100	–	> 100	> 100	> 100	> 100	–	–	–	–	–	–	–	–	–	–
C=C1CN(C(=O)c2cc3cc(OC)c(OC)c(OC)c3[nH]2)c2cc([N+](=O)[O-])ccc21	> 100	> 100	> 100	> 100	> 100	> 100	–	> 100	> 100	–	–	–	–	–	–	–	–	–	–	–
CN(CCN(C)Cc1ccc(Cl)c(Cl)c1)CCN1CCCC1	99.9	20.3	> 100	23.9	41.2	35.8	> 88.7	> 100	59.9	> 100	–	–	–	–	–	–	–	–	–	–
COc1cc2[nH]c(=O)[nH]c2c2c(C)c[nH]c12	> 100	> 100	> 100	> 100	> 100	> 100	> 100	> 100	> 100	> 100	–	–	–	–	–	–	–	–	–	–
O=C1OS2(OC(=O)c3cccc4cccc2c34)c2ccccc21 (configuration not stated)	> 100	> 100	> 100	> 100	> 100	> 100	> 100	> 100	> 100	> 100	–	–	–	–	–	–	–	–	–	–

Structure (SMILES)	TGI [1] [µM]	TGI [2] [µM]	TGI [3] [µM]	TGI [4] [µM]	TGI [5] [µM]	TGI [6] [µM]	TGI [7] [µM]	TGI [8] [µM]	TGI [9] [µM]	TGI [10] [µM]	GI50 [1] [µM]	GI50 [2] [µM]	GI50 [3] [µM]	GI50 [4] [µM]	GI50 [5] [µM]	GI50 [6] [µM]	GI50 [7] [µM]	GI50 [8] [µM]	GI50 [9] [µM]	GI50 [10] [µM]
CC1CCC(O)/C=C/C(=O)OC(C)C(O)/C=C/C(=O)O1 (configuration not stated)	> 100	> 100	> 100	> 100	> 100	> 100	> 100	> 100	> 100	> 100	–	–	–	–	–	–	–	–	–	–
C=CCn1c(-c2ccc(N=NNc3ccc(-c4n[nH]c(=S)n4CC=C)cc3)cc2)n[nH]c1=S	37.8	> 100	> 100	> 100	> 100	> 100	15.7	4.76	–	5.09	–	–	–	–	–	–	–	–	–	–
CC(CCC(=O)O)(c1cc(Br)c(O)c(Br)c1)c1cc(Br)c(O)c(Br)c1	> 100	> 100	> 100	> 100	> 100	> 100	> 100	> 100	> 100	> 100	–	–	–	–	–	–	–	–	–	–
O=c1[nH]c(=O)n(COCCO)cc1-c1ccccc1	–	> 100	> 100	> 100	> 100	> 100	> 100	> 100	> 100	> 100	–	–	–	–	–	–	–	–	–	–
Cc1cc(S(=O)(=O)Nc2nc(N)n(-c3ccccc3)n2)c(S)cc1Cl	> 100	> 100	> 100	> 100	> 100	> 100	–	> 100	> 100	> 100	–	–	–	–	–	–	–	–	–	–
C=CCCCN1C(=O)C2C3c4ccccc4C(C=O)(c4ccccc43)C2C1=O (configuration not stated)	–	31.9	20.7	28.9	25.2	26.4	26.1	> 100	59.5	> 100	–	–	–	–	–	–	–	–	–	–
COC(=O)/C=C1\C(=O)N(C(C)=O)c2ccccc21	21.5	32.7	31	22.2	29.3	27.5	> 55.2	30.5	33.5	20.1	–	–	–	–	–	–	–	–	–	–
Nc1nc(-c2ccccc2)cc(-c2ccc(F)cc2)c1-c1ccc(Cl)cc1	> 100	> 100	> 100	> 100	> 100	> 100	> 100	> 100	> 100	> 100	–	–	–	–	–	–	–	–	–	–
N#CCCN(CCN(CCN(C(=O)Nc1ccccc1)c1ccccc1)C(=O)Nc1ccccc1)C(=O)Nc1ccccc1	> 100	> 100	> 100	> 100	> 100	–	> 100	> 100	> 100	> 100	–	–	–	–	–	–	–	–	–	–
O=C(O)c1cc(/C=C/c2ccc(O)c(O)c2)ccc1O	> 100	> 100	> 100	> 100	> 100	> 100	> 100	> 100	> 100	> 100	–	–	–	–	–	–	–	–	–	–
NCCCCN(CCCN)C(=O)OCc1ccccc1	> 100	> 100	> 100	> 100	> 100	–	> 100	> 100	> 100	> 100	–	–	–	–	–	–	–	–	–	–
Cc1cc([C@H](C#N)c2nc3ccccc3s2)nc(Cl)n1	> 100	39.1	59.4	22.4	6.49	17	> 100	31.6	> 100	78.5	–	–	–	–	–	–	–	–	–	–
O=C1NC(N2CCOCC2)=N/C1=C\c1ccccc1	–	> 100	> 100	> 100	> 100	> 100	> 100	> 100	> 100	> 100	–	–	–	–	–	–	–	–	–	–
O=C(/C=C/c1ccco1)c1ccc(Nc2ccnc3cc(Cl)ccc23)cc1	> 100	> 100	> 100	> 100	> 100	> 100	> 100	> 100	> 100	> 100	20.9	74.9	> 100	76	39.2	> 100	> 100	82.2	76.7	> 100
NC(=O)c1ccc(N)nc1	0.864	> 400	> 400	> 400	> 400	> 400	> 400	> 400	> 400	> 400	–	–	–	–	–	–	–	–	–	–
CCCCc1ccc(Nc2nc(N)c3[nH]cnc3n2)cc1	–	44.1	45.4	47.4	38.1	38.1	68.8	> 100	57.6	35.5	–	–	–	–	–	–	–	–	–	–
CCOC(=O)n1c2ccccc2c2c(O)c(OC)c3c(c21)C(=O)NC3=O	–	> 100	> 100	> 100	52.2	95.4	> 100	> 100	> 100	> 100	–	–	–	–	–	–	–	–	–	–
O=C(/C=C/c1ccccc1O)CC(=O)/C=C/c1ccccc1O	9.06	> 31.6	31.3	18.7	–	17.5	> 31.6	> 31.6	17	25.9	–	–	–	–	–	–	–	–	–	–
CC(C)OCC(O)COc1cc(=O)oc2ccccc12 (configuration not stated)	–	> 100	> 100	> 100	> 100	> 100	> 100	> 100	> 100	> 100	–	–	–	–	–	–	–	–	–	–
COC(=O)c1ccc2c(c1)CC1(C2)Cc2ccc3c(c2C1)CCC3 (configuration not stated)	> 100	> 100	> 100	53.8	32.1	60.5	66.4	69.1	–	> 100	–	–	–	–	–	–	–	–	–	–
COC12OC3(C4OC41)C(C(=O)O[C@H]3CO[Si](C)(C)C(C)(C)C)C2S(=O)(=O)c1ccccc1 (some centres not stated)	–	> 5.53	> 5.18	> 12.6	47.3	> 85.1	> 100	> 100	> 5.33	> 83.9	–	–	–	–	–	–	–	–	–	–
